From patent publication US6642214B1, “Detoxication of active pharmaceutical substances using cyclodextrine oligomers” (CeramOptec Industries, Inc., priority 1997, dated 2003)

Legend:
[1] = Affinity constants of β-cyclodextrin dimers/trimers for guest compounds (competition with TNS, fluorescence spectroscopy); type: binding
Procedure: Binding constants can be determined in competition with 6-(p-toluidino)-2-naphthalenesulfonic acid (TNS). The measurement is performed by fluorescence spectroscopy according to Ruebner et al. (loc. cit.).
Due to the cyclodextrins being bonded on the secondary side, the cavities of the cyclodextrins are oriented towards each other. The cyclodextrins are preferably β-cyclodextrins. The distance between the cyclodextrin units is determined by selecting the spacer. Depending on the size of the compound to be enclosed, the spacer is selected such that the distance between the at least two cavities approximately matches the distance between two hydro-phobic groups of the pharmaceutically active substance. Preferred spacings are within a range of about 0.6 to 2 nm, more preferably in a range of about 0.8, 1.0, 1.2, 1.4, 1.6 and 1.8 nm.
Such rigid spacers can also be achieved by the use of appropriately functionalized (hetero)aromatics. For example, rigid spacers prevent too high a conformational flexibility, such as twisting of the two cyclodextrins involved in the binding. […] By the use of rigid spacers, affinity constants within a range of greater than 10^6, preferably greater than 10^7 and more preferably greater than 10^8 l/mol are achieved. Thus, rigid spacers are those which achieve correspondingly high stability constants of the complexes together with cyclodextrins involved in the binding and appropriate guest compounds.

[2] = Complex binding constant in competitive reaction with toluidinonaphthalenesulfonic acid; details: guest paclitaxel; competition with toluidinonaphthalenesulfonic acid; read-out: complex binding constant Ktaxol
Procedure: 250 mg (100 μmol) of the CD dimer di-β-CD(2N-A4C5A4) (see FIG. 5) was dissolved in 1 l of aqueous buffer (pH 7.35, Hepes 25 mM) at 60° C. and kept at this temperature with vigorous stirring. 8.5 mg of paclitaxel (10 μmol) was dissolved in 1 ml of dimethyl sulfoxide and added dropwise to the mixture with vigorous stirring. The mixture was kept at 60° C. for 24 hours with stirring, followed by cooling and freeze-drying the mixture.

[3] = spacer length 15-16 Å, guests paclitaxel, docetaxel

## di-β-CD(—NH—(C3H6)—NHCO—(C3H6)—CONH—(C3H6)—NH—) [A3C5A3]
[1]; spacer length 11-12 Å, guests colchicine, colchemide
  Affinity constant, measured/estimated: 10^6-10^7 l/mol

## di-β-CD(—NH—(C2H4)—SH-[6-(β,γ)-CD-6]-SH—(C2H4)—NH—)
[1]; [3]
  Affinity constant, measured/estimated: 3 · 10^9 (trimer) l/mol

## di-β-CD(—NH—(C8H16)—NH—) [octyl-α,ω-diamide]
[1]; spacer length 7-8 Å, guests 3^1,8^1-(di-t-butylphenoxy)-porphyrinoids, (tamoxifene), phenytoin
  Affinity constant, measured/estimated: 10^6-10^7 l/mol

## di-β-CD(—NH—(C4H8)—NHCO—(C3H6)—CONH—(C4H8)—NH—) [A4C5A4]
[2]
  Kd: 1.4 µM
[1]; [3]
  Affinity constant, measured/estimated: 10^7 (dimer)- l/mol

## di-β-CD(—NH—(C2H4)—SH—[6-α-CD-6]—SH—(C2H4)—NH—)
[1]; spacer length 13-14 Å, guests vinblastin, vincristin
  Affinity constant, measured/estimated: ˜10^8 l/mol
